Measurements taken from patent US9145351B2, “Azole derivatives, methods for producing the same, intermediate thereof, agro-horticultural agents” (KUREHA CORPORATION, priority 2009, dated 2015).

Legend:
Botrytis cinerea = experiment: Efficacy test against cucumber gray mold (Experimental Example 1); assay type: in vivo; details: 96 h, four days after inoculation, read-out: Protective value; for pest or weed control at 100 µg/mL: 100 mg/L sprayed at 1,000 L/ha
Protocol: Onto a cucumber (variety:SHARP1) plant in its cotyledon phase grown using a square plastic pot (6 cm×6 cm), a wettable formulation such as Formulation Example 1 which was diluted and suspended in water at a certain concentrations (100 mg/L and 50 mg/L) was sprayed at a rate of 1,000 L/ha. The sprayed leaves were air-dried, and loaded with a paper disc (8 mm in diameter) soaked in a spore suspension of Botrytis cinerea, and kept at 20 degrees C. and a high humidity. Four days after inoculation, the cucumber gray mold lesion degree was investigated, and the protective value was calculated by the following equation. Protective value (%)=(1−mean lesion degree in sprayed plot/mean lesion degree in unsprayed plot)×100

Puccinia recondita = experiment: Efficacy test against wheat brown rust, 100 mg/L and 10 mg/L (Experimental Example 2); assay type: in vivo; details: nine to 14 days after inoculation; for efficacy compared with compound (1): 10 mg/L sprayed at 1,000 L/ha; for pest or weed control at 100 µg/mL: Puccinia recondita, 336 h, 100 mg/L sprayed at 1,000 L/ha, read-out: Protective value
Protocol: Onto a wheat plant (variety: NORIN No. 61) grown to the two-leaf phase using a square plastic pot (6 cm×6 cm), a wettable formulation such as Formulation Example 1 which was diluted and suspended in water at a certain concentration (100 mg/L and 10 mg/L) was sprayed at a rate of 1,000 L/ha. The sprayed leaves were air-dried, and inoculated with spore suspension of Puccinia recondita (adjusted at 200 spores/vision, […] was added at 60 ppm) by spraying, and kept at 25 degrees C. and a high humidity for 48 hours. Thereafter, the plant was kept in a greenhouse. Nine to 14 days after inoculation, the wheat brown rust lesion degree was investigated, and the protective value was calculated by the following equation. Protective value (%)=(1-lesion degree in sprayed plot/lesion degree in unsprayed plot)×100

Septoria tritici = experiment: Microplate test of biocidal effect on wheat Septoria blotch (Experimental Example 4); assay type: cell-based; details: Zymoseptoria tritici, 240 h; % mycelium growth inhibition, absorbance 550 nm, 20 degrees C. for about 10 days; read-out: activity level (EC80)
Protocol: A spore suspension of wheat Septoria blotch (Septoria tritici) (spore concentration: 1×10^6 cells/ml) was prepared, and subjected to 100-fold dilution with a PD medium. A flat 96-well microplate was provided and 1 microliter of the test compound solution formed by dissolution in dimethyl sulfoxide (DMSO) at a concentration 100 times the test concentration was dispensed to the microplate, and then 100 microliter of the medium containing the spore was added and stirred thoroughly. […] R=100×(dc−dt)/dc: R: % mycelium growth inhibition dc: Absorbance of non-treatment zone dt: Absorbance of treatment zone

Aspergillus sp. = experiment: Plate medium assay, industrial material deteriorating microorganism, Aspergillus (Experimental Example 5); assay type: cell-based; details: treatment at 50 mg/l, PDA plate medium, read-out: growth inhibition grade
Protocol: (§1) In this Experimental Example, the fungicidal effects of the inventive compounds on various phytopathogenic fungi for plants and hazardous microorganism for industrial materials were examined by the methods described below. Each inventive compound was dissolved in 2 ml of dimethyl sulfoxide. 0.6 ml of this solution was added to 60 nil of a PDA medium (potato dextrose agar medium) at about 60 degrees C., which was mixed thoroughly in a 100-ml conical flask, and poured into a dish, where it was solidified, thereby obtaining a plate medium containing the inventive compound at 50 mg/L and 5 mg/L. On the other hand, a subject microorganism previously cultured on a plate medium was cut out using a cork borer whose diameter was 4 mm, and inoculated to the test compound-containing plate medium described above. […] The growth degree of the microorganism on the test compound-containing plate medium thus observed was compared with the growth degree of the microorganism in the untreated group, and % mycelial growth inhibition was calculated by the following equation. R=100(dc-dt)/dc wherein R=% mycelial extension inhibition, dc=flora diameter in untreated plate, dt=flora diameter in treated plate. The results obtained as described above were evaluated as one of the 5 grades according to the following criteria.

Trichoderma sp. = experiment: Plate medium assay, industrial material deteriorating microorganism, Trichoderma (Experimental Example 5); assay type: cell-based; details: treatment at 50 mg/l, PDA plate medium, read-out: growth inhibition grade
Protocol: as §1

Penicillium sp. = experiment: Plate medium assay, industrial material deteriorating microorganism, Penicillium (Experimental Example 5); assay type: cell-based; details: treatment at 50 mg/l, PDA plate medium, read-out: growth inhibition grade
Protocol: as §1

Cladosporium sp. = experiment: Plate medium assay, industrial material deteriorating microorganism, Cladosporium (Experimental Example 5); assay type: cell-based; details: treatment at 50 mg/l, PDA plate medium, read-out: growth inhibition grade
Protocol: as §1

Mucor sp. = experiment: Plate medium assay, industrial material deteriorating microorganism, Mucor (Experimental Example 5); assay type: cell-based; details: treatment at 50 mg/l, PDA plate medium, read-out: growth inhibition grade
Protocol: as §1

Aureobasidium sp. = experiment: Plate medium assay, industrial material deteriorating microorganism, Aureobasidium (Experimental Example 5); assay type: cell-based; details: treatment at 50 mg/l, PDA plate medium, read-out: growth inhibition grade
Protocol: as §1

Coriolus versicolor = experiment: Plate medium assay, wood denaturing microorganism Kawaratake (Experimental Example 5); assay type: cell-based; details: Trametes versicolor; treatment at 50 mg/l, PDA plate medium; read-out: growth inhibition grade
Protocol: as §1

SMILES	pest or weed control at 50 µg/mL (Botrytis cinerea; 50 mg/L sprayed at 1,000 L/ha) [%]	pest or weed control at 100 µg/mL (Botrytis cinerea) [%]	efficacy compared with compound (1) (Puccinia recondita)	pest or weed control at 100 µg/mL (Puccinia recondita) [%]	EC80 (Septoria tritici) [µg/mL]	inhibition at 50 µg/mL (Aspergillus sp.) [%]	inhibition at 50 µg/mL (Trichoderma sp.) [%]	inhibition at 50 µg/mL (Penicillium sp.) [%]	inhibition at 50 µg/mL (Cladosporium sp.) [%]	inhibition at 50 µg/mL (Mucor sp.) [%]	inhibition at 50 µg/mL (Aureobasidium sp.) [%]	inhibition at 50 µg/mL (Coriolus versicolor) [%]
C[C@]1(CBr)CC[C@@H](Cc2ccccc2)[C@]1(O)Cn1cncn1 (racemic) [Compound I-602, (1RS,2SR,5SR)-2-bromomethyl-5-benzyl-2-methyl-1-(1H-1,2,4-triazol-1-ylmethyl)cyclopentanol]	≥ 80	≥ 80	higher efficacy than that of compound (1)	≥ 90	≤ 0.2	60 to 80	60 to 80	60 to 80	60 to 80	60 to 80	60 to 80	60 to 80
CC(Cl)=C[C@]1(C)CC[C@@H](Cc2ccc(Cl)cc2)[C@]1(O)Cn1cncn1 (racemic) [Compound I-115, (1RS,2SR,5SR)-5-(4-chlorobenzyl)-2-(2-chloropropenyl)-2-methyl-1-(1H-1,2,4-triazol-1-ylmethyl)cyclopentanol]	–	–	–	≥ 90	–	60 to 80	60 to 80	60 to 80	60 to 80	60 to 80	60 to 80	60 to 80
CC[C@]1(CCl)CC[C@@H](Cc2ccccc2)[C@]1(O)Cn1cncn1 (relative stereo) [Compound I-97]	–	–	higher efficacy than that of compound (1)	–	–	–	–	–	–	–	–	–
O[C@]1(Cn2cncn2)[C@H](Cc2ccc(Cl)cc2)CCC1(CCl)CCl (relative stereo) [Compound I-203, cis-5-(4-chlorobenzyl)-2,2-bis(chloromethyl)-1-(1H-1,2,4-triazol-1-yl)methylcyclopentanol]	–	–	higher efficacy than that of compound (1)	–	–	–	–	–	–	–	–	–
C[C@]1(CCl)CC[C@@H](Cc2ccccc2F)[C@]1(O)Cn1cncn1 (relative stereo) [Compound I-86]	–	–	higher efficacy than that of compound (1)	–	–	–	–	–	–	–	–	–
Cc1ccc(C[C@@H]2CC[C@](C)(CCl)[C@@]2(O)Cn2cncn2)cc1 (relative stereo) [Compound I-80]	–	–	higher efficacy than that of compound (1)	–	–	–	–	–	–	–	–	–
O[C@]1(Cn2cncn2)[C@@H](Cc2ccc(Cl)cc2)CC[C@@H]1C(F)(F)F (racemic) [Compound I-365, (1RS,2SR,5RS)-5-(4-chlorobenzyl)-2-trifluoromethyl-1-(1H-1,2,4-triazol-1-ylmethyl)cyclopentanol]	–	–	–	–	–	60 to 80	60 to 80	60 to 80	60 to 80	60 to 80	60 to 80	60 to 80
O[C@]1(Cn2cncn2)[C@H](Cc2ccc(Cl)cc2)CC[C@@H]1C(F)(F)F (racemic) [Compound I-65, (1RS,2SR,5SR)-5-(4-chlorobenzyl)-2-trifluoromethyl-1-(1H-1,2,4-triazol-1-ylmethyl)cyclopentanol]	–	≥ 80	–	≥ 90	–	60 to 80	60 to 80	60 to 80	60 to 80	60 to 80	60 to 80	60 to 80
